Molecules are shown by their SMILES.

This is an account of results in patent US20200055839A1 (priority 2017, published 2020).

The subject of one test is NL-RLuc virus. The experiment in a line: Inhibition of HIV replication (NL-RLuc virus, luciferase readout in MT-2 cells). It counts as cell-based. The following applies: Human immunodeficiency virus 1, MT2, 120 h, MT-2 cells infected with NL-RLuc virus, 5 days of incubation, 10% FBS, at least 2 experiments. A digest of the protocol:
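EC50 derived via median effect equation from at least 2 experiments, using luciferase expression as virus-growth readout. Replication-competent NL-RLuc reporter virus (nef partly replaced by Renilla luciferase) infected MT-2 cells with serial compound dilutions; 5-day incubation in RPMI 1640 plus 10% FBS.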
Compound `Cc1ncc(-c2ccc(OCCc3ccccc3)c(F)c2)c(N2CCC(C)(C)CC2)c1[C@H](OC(C)(C)C)C(=O)O` [Example 258, (S)-2-(tert-Butoxy)-2-(4-(4,4-dimethylpiperidin-1-yl)-5-(3-fluoro-4-phenethoxyphenyl)-2-methylpyridin-3-yl)acetic acid] came in with a half-maximal effective concentration (EC50) of 1 nM.

In the case of `Cc1nc(NC2CCN(C)CC2)c(-c2ccc(OCCc3ccc(F)cc3)cc2)c(N2CCC(C)(C)CC2)c1[C@H](OC(C)(C)C)C(=O)O` [Example 25, (S)-2-(tert-Butoxy)-2-(4-(4,4-dimethylpiperidin-1-yl)-5-(4-(4-fluorophenethoxy)phenyl)-2-methyl-6-((1-methylpiperidin-4-yl)amino)pyridin-3-yl)acetic acid], the half-maximal effective concentration (EC50) worked out at 0.8 nM.

As for `Cc1nc(CN2CCC3(CCC3)CC2)c(-c2ccc(F)c(F)c2)c(N2CCC(C)(C)CC2)c1[C@H](OC(C)(C)C)C(=O)O` [Example 195, (2S)-2-[6-({7-Azaspiro[3.5]nonan-7-yl}methyl)-5-(3,4-difluorophenyl)-4-(4,4-dimethylpiperidin-1-yl)-2-methylpyridin-3-yl]-2-(tert-butoxy)acetic acid], the response was half-maximal at 1 nM (EC50).

As for `Cc1ncc(-c2ccc(CNc3ncnc4c3oc3ccccc34)c(F)c2)c(N2CCC(C)(C)CC2)c1[C@H](OC(C)(C)C)C(=O)O` [Example 218, (S)-2-(5-(4-((Benzofuro[3,2-d]pyrimidin-4-ylamino)methyl)-3-fluorophenyl)-4-(4,4-dimethylpiperidin-1-yl)-2-methylpyridin-3-yl)-2-(tert-butoxy)acetic acid], the EC50 was determined as 0.2 nM.

Regarding `Cc1nc(NCc2ccn[nH]2)c(-c2ccc(OCCc3ccc(F)cc3)cc2)c(N2CCC(C)(C)CC2)c1[C@H](OC(C)(C)C)C(=O)O` [Example 30, (S)-2-(6-(((1H-Pyrazol-5-yl)methyl)amino)-4-(4,4-dimethylpiperidin-1-yl)-5-(4-(4-fluorophenethoxy)phenyl)-2-methylpyridin-3-yl)-2-(tert-butoxy)acetic acid], the response was half-maximal at 2 nM (EC50).

Compound `Cc1ncc(-c2ccc(OCc3c(Cl)cccc3Cl)cn2)c(N2CCC(C)(C)CC2)c1[C@H](OC(C)(C)C)C(=O)O` [Example 355, (2S)-2-(tert-butoxy)-2-{5-[(2,6-dichlorophenyl)methoxy]-4′-(4,4-dimethylpiperidin-1-yl)-6′-methyl-[2,3′-bipyridine]-5′-yl}acetic acid] showed a half-maximal effective concentration (EC50) of 1 nM.

The compound `Cc1ncc(-c2ccc(NCCc3ccc(F)cc3)nc2)c(N2CCC(C)(C)CC2)c1[C@H](OC(C)(C)C)C(=O)O` [Example 110, (S)-2-(tert-Butoxy)-2-(4-(4,4-dimethylpiperidin-1-yl)-6′-((4-fluorophenethyl)amino)-6-methyl-[3, 3′-bipyridin]-5-yl)acetic acid] yielded an EC50 of 2 nM.

In turn, `COc1c(F)cc(-c2c(CN3CCC4(CCC4)CC3)nc(C)c([C@H](OC(C)(C)C)C(=O)O)c2N2CCC(C)(C)CC2)cc1F` [Example 194, (2S)-2-[6-({7-Azaspiro[3.5]nonan-7-yl}methyl)-5-(3,5-difluoro-4-methoxyphenyl)-4-(4,4-dimethylpiperidin-1-yl)-2-methylpyridin-3-yl]-2-(tert-butoxy)acetic acid] gave an EC50 of 0.6 nM.

`Cc1ncc(-c2cnc(O[C@H](C)c3ccccc3)c(F)c2)c(N2CCC(C)(C)CC2)c1[C@H](OC(C)(C)C)C(=O)O` [Example 396, (2S)-2-(tert-butoxy)-2-[4-(4,4-dimethylpiperidin-1-yl)-5′-fluoro-6-methyl-6′-[(1R)-1-phenylethoxy]-[3,3′-bipyridine]-5-yl]acetic acid]: the midpoint of the response, the EC50, lay at 2 nM.

For `Cc1ncc(-c2ccc3ccncc3c2)c(N2CCC(C)(C)CC2)c1[C@H](OC(C)(C)C)C(=O)O` [Example 176, (2S)-2-(tert-Butoxy)-2-[4-(4,4-dimethylpiperidin-1-yl)-5-(isoquinolin-7-yl)-2-methylpyridin-3-yl]acetic acid], the EC50 amounted to 5 nM.

For `Cc1ncc(-c2cnc(OCC(C)C)c(F)c2)c(N2CCC(C)(C)CC2)c1[C@H](OC(C)(C)C)C(=O)O` [Example 381, (2S)-2-(tert-butoxy)-2-[4-(4,4-dimethylpiperidin-1-yl)-5′-fluoro-6-methyl-6′-(2-methylpropoxy)-[3,3′-bipyridine]-5-yl]acetic acid], the concentration for a half-maximal effect (EC50) was 3 nM.

The compound `Cc1cc(CCOc2ccc(-c3cnc(C)c([C@H](OC(C)(C)C)C(=O)O)c3N3CCC(C)(C)CC3)nc2)ccc1F` [Example 294, (2S)-2-(tert-butoxy)-2-[4′-(4,4-dimethylpiperidin-1-yl)-5-[2-(4-fluoro-3-methylphenyl)ethoxy]-6′-methyl-[2,3′-bipyridine]-5′-yl]acetic acid] came in with an EC50 of 2 nM.

`Cc1ncc(-c2ccc(CN(C)c3ncnc4c3oc3ccccc34)cc2)c(N2CCC(C)(C)CC2)c1[C@H](OC(C)(C)C)C(=O)O` [Example 20, (2S)-2-(tert-Butoxy)-2-[4-(4,4-dimethylpiperidin-1-yl)-2-methyl-5-(4-{[methyl({8-oxa-3,5-diazatricyclo[7.4.0.0^2,7]trideca-1(9),2(7),3,5,10,12-hexaen-6-yl})amino]methyl}phenyl)pyridin-3-yl]acetic acid] showed an EC50 of 2 nM.

`Cc1nc(-c2ccnn2C)c(-c2ccc(OCCc3ccc(F)cc3)cc2)c(N2CCC(C)(C)CC2)c1[C@H](OC(C)(C)C)C(=O)O` [Example 50, (S)-2-(tert-Butoxy)-2-(4-(4,4-dimethylpiperidin-1-yl)-5-(4-(4-fluorophenethoxy)phenyl)-2-methyl-6-(1-methyl-1H-pyrazol-5-yl)pyridin-3-yl)acetic acid] showed an EC50 of 2 nM.

`Cc1ccc(CCOc2ccc(-c3cnc(C)c([C@H](OC(C)(C)C)C(=O)O)c3N3CCC(C)(C)CC3)nc2)cc1` [Example 300, (2S)-2-(tert-butoxy)-2-[4′-(4,4-dimethylpiperidin-1-yl)-6′-methyl-5-[2-(4-methylphenyl)ethoxy]-[2,3′-bipyridine]-5′-yl]acetic acid] registered an EC50 of 1 nM.

For the compound `Cc1ncc(-c2ccc3ccccc3n2)c(N2CCC(C)(C)CC2)c1[C@H](OC(C)(C)C)C(=O)O` [Example 266, (S)-2-(tert-Butoxy)-2-(4-(4,4-dimethylpiperidin-1-yl)-2-methyl-5-(quinolin-2-yl)pyridin-3-yl)acetic acid], the concentration for a half-maximal effect (EC50) turned out to be 11 nM.

Consider `COc1cccc(CCOc2ccc(-c3cnc(C)c([C@H](OC(C)(C)C)C(=O)O)c3N3CCC(C)(C)CC3)nc2)c1` [Example 301, (2S)-2-(tert-butoxy)-2-[4′-(4,4-dimethylpiperidin-1-yl)-5-[2-(3-methoxyphenyl)ethoxy]-6′-methyl-[2,3′-bipyridine]-5′-yl]acetic acid], for which the 50% effective concentration (EC50) was 1 nM.

The compound `Cc1ccc(-c2cnc(C)c([C@H](OC(C)(C)C)C(=O)O)c2N2CCC(C)(C)CC2)c(F)c1F` [Example 159, (2S)-2-(tert-Butoxy)-2-[5-(2,3-difluoro-4-methylphenyl)-4-(4,4-dimethylpiperidin-1-yl)-2-methylpyridin-3-yl]acetic acid] showed a half-maximal effective concentration (EC50) of 2 nM.

On to `Cc1ncc(-c2ccc(CCC(C)C)cn2)c(N2CCC(C)(C)CC2)c1[C@H](OC(C)(C)C)C(=O)O` [Example 273, (S)-2-(tert-Butoxy)-2-(4′-(4,4-dimethylpiperidin-1-yl)-5-isopentyl-6′-methyl-[2, 3′-bipyridin]-5′-yl)acetic acid], for which the EC50 was 4 nM.

`Cc1nc(Nc2ccccn2)c(-c2ccc(OCCc3ccc(F)cc3)cc2)c(N2CCC(C)(C)CC2)c1[C@H](OC(C)(C)C)C(=O)O` [Example 63, (S)-2-(tert-Butoxy)-2-(4-(4,4-dimethylpiperidin-1-yl)-5-(4-(4-fluorophenethoxy)phenyl)-2-methyl-6-(pyridin-2-ylamino)pyridin-3-yl)acetic acid] displayed a concentration giving a half-maximal response (EC50) of 6 nM.

`Cc1ccccc1COc1ccc(-c2cnc(C)c([C@H](OC(C)(C)C)C(=O)O)c2N2CCC(C)(C)CC2)nc1` [Example 346, (2S)-2-(tert-butoxy)-2-[4′-(4,4-dimethylpiperidin-1-yl)-6′-methyl-5-[(2-methylphenyl)methoxy]-[2,3′-bipyridine]-5′-yl]acetic acid]: a half-maximal effect (EC50) was put at 5 nM.

For `Cc1nc(CN2CCC3(CCC3)CC2)c(-c2ccc(OCCc3ccc(F)cc3)c(F)c2)c(N2CCC(C)(C)CC2)c1[C@H](OC(C)(C)C)C(=O)O` [Example 231, (S)-2-(6-((7-Azaspiro[3.5]nonan-7-yl)methyl)-4-(4,4-dimethylpiperidin-1-yl)-5-(3-fluoro-4-(4-fluorophenethoxy)phenyl)-2-methylpyridin-3-yl)-2-(tert-butoxy)acetic acid], the concentration giving a half-maximal response (EC50) came out at 0.6 nM.

On to `Cc1nc(-n2ccnc2)c(-c2ccc(OCCc3ccc(F)cc3)cc2)c(N2CCC(C)(C)CC2)c1[C@H](OC(C)(C)C)C(=O)O` [Example 45, (S)-2-(tert-Butoxy)-2-(4-(4,4-dimethylpiperidin-1-yl)-5-(4-(4-fluorophenethoxy)phenyl)-6-(1H-imidazol-1-yl)-2-methylpyridin-3-yl)acetic acid], for which it took 4 nM to reach a half-maximal effect (EC50).

`Cc1ncc(-c2cnc(OCCc3c(F)cc(F)cc3F)c(F)c2)c(N2CCC(C)(C)CC2)c1[C@H](OC(C)(C)C)C(=O)O` [Example 404, (2S)-2-(tert-butoxy)-2-[4-(4,4-dimethylpiperidin-1-yl)-5′-fluoro-6-methyl-6′-[2-(2,4,6-trifluorophenyl)ethoxy]-[3,3′-bipyridine]-5-yl]acetic acid]: a half-maximal effect (EC50) was put at 3 nM.

The compound `COc1ccc(CCOc2ccc(-c3cnc(C)c([C@H](OC(C)(C)C)C(=O)O)c3N3CCC(C)(C)CC3)nc2)cc1F` [Example 330, (2S)-2-(tert-butoxy)-2-[4′-(4,4-dimethylpiperidin-1-yl)-5-[2-(3-fluoro-4-methoxyphenyl)ethoxy]-6′-methyl-[2,3′-bipyridine]-5′-yl]acetic acid] registered an EC50 of 0.4 nM.

The same test, now with this note: MT-2 cells infected with NL-RLuc virus, 5 days of incubation, 10% FBS, at least 2 experiments.
For `Cc1nc(C(C)O)c(-c2ccc(OCCc3ccc(F)cc3)c(F)c2)c(N2CCC(C)(C)CC2)c1[C@H](OC(C)(C)C)C(=O)O` (single isomer, unassigned) [Example 237], the EC50 was determined as 3 nM.

For orientation: EC50 means the concentration that produces a half-maximal response. High values mean a need for much substance, low ones an effect from little substance.
